# Test results: patent US8193189B2, “Quinoxaline derivatives as tyrosine kinase activity inhibitors” (Novartis AG, priority 2007, dated 2012)
# What was measured:
# GST-TYK2(888-1187) = biological target: T1, GST-TYK2(888-1187) (Homo sapiens, UniProt P29597); assay: EPK JAK-family kinases profiling assay (Caliper mobility shift), TYK2; type: biochemical; conditions: ATP 30 μM, 40 nM kinase
# T1 construct: GST-TYK2(888-1187); made in house
# T1 sequence (P29597 888-1187): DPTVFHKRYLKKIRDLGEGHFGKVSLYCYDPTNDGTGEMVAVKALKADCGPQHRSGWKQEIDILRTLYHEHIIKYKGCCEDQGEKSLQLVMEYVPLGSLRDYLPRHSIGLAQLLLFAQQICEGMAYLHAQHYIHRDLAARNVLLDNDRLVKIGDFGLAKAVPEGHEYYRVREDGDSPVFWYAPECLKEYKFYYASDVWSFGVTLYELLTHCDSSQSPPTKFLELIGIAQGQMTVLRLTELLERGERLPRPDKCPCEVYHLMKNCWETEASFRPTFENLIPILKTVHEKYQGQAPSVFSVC
# How it was run: (§1)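 Turnover was read as substrate/product ratio after mobility-shift capillary-like separation of each reaction, run for 60 min at 30 °C with GST-tagged kinase domain, labelled peptide and ATP, and terminated with EDTA stop buffer.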
# GST-JAK1(866-1154) = biological target: T2, GST-JAK1(866-1154) (Homo sapiens, UniProt P23458); assay: EPK JAK-family kinases profiling assay (Caliper mobility shift), JAK1; type: biochemical; conditions: ATP 40 μM, 50 nM kinase
# T2 construct: GST-JAK1(866-1154); made in house
# How it was run: as §1
# GST-JAK2(808-1132) = biological target: T3, GST-JAK2(808-1132) (Homo sapiens, UniProt O60674); assay: EPK JAK-family kinases profiling assay (Caliper mobility shift), JAK2; type: biochemical; conditions: ATP 20 μM, 1.8 nM kinase
# T3 construct: GST-JAK2(808-1132); purchased Invitrogen (Carlsbad, USA) #4288
# How it was run: as §1
# GST-JAK3(811-1124) = biological target: T4, GST-JAK3(811-1124) (Homo sapiens, UniProt P52333); assay: EPK JAK-family kinases profiling assay (Caliper mobility shift), JAK3; type: biochemical; conditions: ATP 80 μM, 6 nM kinase
# T4 construct: GST-JAK3(811-1124); made in house
# How it was run: as §1
# [1] = system: JAK/STAT pathway (JAK1/JAK2-dependent nuclear translocation of STAT1-GFP); assay: Inhibition of the JAK/STAT pathway: IFN-γ stimulated nuclear translocation of STAT1-GFP in HT1080 fibrosarcoma cells; type: cell-based; conditions: Homo sapiens, HT-1080; HT1080 STAT1-GFP cells, 100 ng/ml IFN-γ 2 hours, compound added 30 min before; read-out: STAT1translo IC50
# How it was run: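 HT1080 cells stably expressing STAT1-GFP, compounds added 30 min before IFN-γ stimulation at final 10 μM down to 0.003 μM (0.1% DMSO). Nuclear-cytoplasmic GFP intensity differential quantified by automated imaging with Hoechst nuclear mask, ≥1000 cells per well, averaged per well.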
# T3 sequence (O60674 808-1132): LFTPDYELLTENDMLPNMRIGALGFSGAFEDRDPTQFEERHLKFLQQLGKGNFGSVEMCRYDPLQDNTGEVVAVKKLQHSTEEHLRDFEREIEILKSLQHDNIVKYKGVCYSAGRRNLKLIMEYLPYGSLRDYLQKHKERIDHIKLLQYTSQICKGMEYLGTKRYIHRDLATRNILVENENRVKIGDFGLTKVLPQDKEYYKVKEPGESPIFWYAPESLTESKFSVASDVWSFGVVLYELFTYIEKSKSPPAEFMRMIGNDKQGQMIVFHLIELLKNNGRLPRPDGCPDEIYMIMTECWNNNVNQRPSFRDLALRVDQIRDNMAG
# T4 sequence (P52333 811-1124): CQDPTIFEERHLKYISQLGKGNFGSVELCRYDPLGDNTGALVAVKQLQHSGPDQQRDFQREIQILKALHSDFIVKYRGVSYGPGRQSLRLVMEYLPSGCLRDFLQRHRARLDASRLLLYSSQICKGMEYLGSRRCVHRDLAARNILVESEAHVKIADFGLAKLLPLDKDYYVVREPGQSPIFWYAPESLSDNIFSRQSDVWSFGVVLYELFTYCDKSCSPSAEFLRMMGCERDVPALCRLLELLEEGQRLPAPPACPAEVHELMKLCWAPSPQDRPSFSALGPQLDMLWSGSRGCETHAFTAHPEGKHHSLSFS
# T2 sequence (P23458 866-1154): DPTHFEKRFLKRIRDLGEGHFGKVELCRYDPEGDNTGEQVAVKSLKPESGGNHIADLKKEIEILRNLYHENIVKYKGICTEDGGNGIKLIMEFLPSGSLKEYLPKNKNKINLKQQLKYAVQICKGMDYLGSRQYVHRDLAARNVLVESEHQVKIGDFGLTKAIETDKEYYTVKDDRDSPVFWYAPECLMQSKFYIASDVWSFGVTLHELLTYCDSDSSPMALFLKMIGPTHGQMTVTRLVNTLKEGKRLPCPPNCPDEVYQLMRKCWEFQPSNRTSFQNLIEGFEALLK
IC50 (GST-TYK2(888-1187)) [nM],IC50 (GST-JAK1(866-1154)) [nM],IC50 (GST-JAK2(808-1132)) [nM],IC50 (GST-JAK3(811-1124)) [nM],IC50 [1] [nM],SMILES
715,420,27,870,1130,"Cc1cc(-c2cccc3ncc(-c4ccc(C(=O)N5CCN(C)CC5)c(C)c4)nc23)ccc1CN1CCS(=O)(=O)CC1 [Example 43, (4-{8-[4-(1,1-Dioxido-thiomorpholin-4-ylmethyl)-3-methyl-phenyl]-quinoxalin-2-yl}-2-methyl-phenyl)-(4-methyl-piperazin-1-yl)-methanone]"
240,150,6.55,405,49,"Cc1cc(-c2cnc3cccc(-c4cc(F)c(CN5CCS(=O)(=O)CC5)c(F)c4)c3n2)ccc1C(=O)N1CCN(C)CC1 [Example 44, (4-{8-[4-(1,1-Dioxido-thiomorpholin-4-ylmethyl)-3,5-difluoro-phenyl]-quinoxalin-2-yl}-2-methyl-phenyl)-(4-methyl-piperazin-1-yl)-methanone]"
1600,38,7.05,> 10000,1650,"COCCOc1ccc(-c2cnc3cccc(-c4cc(F)c(CN5CCOCC5)c(F)c4)c3n2)cc1OC [Example 50, 8-(3,5-Difluoro-4-morpholin-4-ylmethyl-phenyl)-2-[3-methoxy-4-(2-methoxy-ethoxy)-phenyl]-quinoxaline]"
> 10000,120,31.5,> 10000,2040,"COCCOc1ccc(-c2cnc3cccc(-c4ccc(CN5CCOCC5)c(F)c4)c3n2)cc1OC [Example 51, 8-(3-Fluoro-4-morpholin-4-ylmethyl-phenyl)-2-[3-methoxy-4-(2-methoxy-ethoxy)-phenyl]-quinoxaline]"
985,97.5,32,1100,2950,"COCCOc1ccc(-c2cnc3cccc(-c4ccc(CN5CCS(=O)(=O)CC5)c(C)c4)c3n2)cc1OC [Example 52, 8-[4-(1,1-Dioxido-thiomorpholin-4-ylmethyl)-3-methyl-phenyl]-2-[3-methoxy-4-(2-methoxy-ethoxy)-phenyl]-quinoxaline]"
93.5,12,< 3,215,150,"COCCOc1ccc(-c2cnc3cccc(-c4cc(F)c(CN5CCS(=O)(=O)CC5)c(F)c4)c3n2)cc1OC [Example 53, 8-[4-(1,1-Dioxido-thiomorpholin-4-ylmethyl)-3,5-difluoro-phenyl]-2-[3-methoxy-4-(2-methoxy-ethoxy)-phenyl]-quinoxaline]"
1450,370,77.5,4300,986,"Cc1cc(-c2cnc3cccc(-c4ccc(CN5CCS(=O)(=O)CC5)cc4)c3n2)ccc1C(=O)N1CCOCC1 [Example 63, (4-{8-[4-(1,1-Dioxido-thiomorpholin-4-ylmethyl)-phenyl]-quinoxalin-2-yl}-2-methyl-phenyl)-morpholin-4-yl-methanone]"
165,68,4.95,290,46.5,"Cc1cc(-c2cnc3cccc(-c4cc(F)c(CN5CCS(=O)(=O)CC5)c(F)c4)c3n2)ccc1C(=O)N1CCOCC1 [Example 64, (4-{8-[4-(1,1-Dioxido-thiomorpholin-4-ylmethyl)-3,5-difluoro-phenyl]-quinoxalin-2-yl}-2-methyl-phenyl)-morpholin-4-yl-methanone]"
1350,360,30.5,1750,564,"Cc1cc(-c2cnc3cccc(-c4ccc(CN5CCS(=O)(=O)CC5)c(C)c4)c3n2)ccc1CN1CCOCC1 [Example 70, 8-[4-(1,1-Dioxido-thiomorpholin-4-ylmethyl)-3-methyl-phenyl]-2-(3-methyl-4-morpholin-4-ylmethyl-phenyl)-quinoxaline]"
510,160,8.1,790,2480,"Cc1cc(-c2cnc3cccc(-c4cc(F)c(CN5CCOCC5)c(F)c4)c3n2)ccc1CN1CCOCC1 [Example 71, 8-(3,5-Difluoro-4-morpholin-4-ylmethyl-phenyl)-2-(3-methyl-4-morpholin-4-ylmethyl-phenyl)-quinoxaline]"
270,33.5,6.25,890,2080,"COc1cc(-c2cnc3cccc(-c4ccc(CC(=O)N5CCOCC5)cc4)c3n2)ccc1OCCCN1CCOCC1 [Example 83, 2-(4-{3-[3-Methoxy-4-(3-morpholin-4-yl-propoxy)-phenyl]-quinoxalin-5-yl}-phenyl)-1-morpholin-4-yl-ethanone]"
270,58.5,5.5,975,1460,"COc1cc(-c2cnc3cccc(-c4cc(F)c(CN5CCOCC5)c(F)c4)c3n2)ccc1OCCCN1CCOCC1 [Example 84, 8-(3,5-Difluoro-4-morpholin-4-ylmethyl-phenyl)-2-[3-methoxy-4-(3-morpholin-4-yl-propoxy)-phenyl]-quinoxaline]"
115,12.5,3.25,220,240,"COc1cc(-c2cnc3cccc(-c4ccc(CN5CCS(=O)(=O)CC5)c(F)c4)c3n2)ccc1OCCCN1CCOCC1 [Example 85, 8-[4-(1,1-Dioxido-thiomorpholin-4-ylmethyl)-3-fluoro-phenyl]-2-[3-methoxy-4-(3-morpholin-4-yl-propoxy)-phenyl]-quinoxaline]"
38,6.65,< 3,110,93,"COc1cc(-c2cnc3cccc(-c4cc(F)c(CN5CCS(=O)(=O)CC5)c(F)c4)c3n2)ccc1OCCCN1CCOCC1 [Example 86, 8-[4-(1,1-Dioxido-thiomorpholin-4-ylmethyl)-3,5-difluoro-phenyl]-2-[3-methoxy-4-(3-morpholin-4-yl-propoxy)-phenyl]-quinoxaline]"
113,27,6.55,840,700,"CN1CCN(c2ccc(-c3cnc4cccc(-c5ccc(CC(=O)N6CCOCC6)c(F)c5)c4n3)cc2)CC1 [Example 88, 2-(2-Fluoro-4-{3-[4-(4-methyl-piperazin-1-yl)-phenyl]-quinoxalin-5-yl}-phenyl)-1-morpholin-4-yl-ethanone]"
450,135,34,3950,1340,"CN1CCN(c2ccc(-c3cnc4cccc(-c5cc(F)c(C(=O)N6CCOCC6)c(F)c5)c4n3)cc2)CC1 [Example 89, (2,6-Difluoro-4-{3-[4-(4-methyl-piperazin-1-yl)-phenyl]-quinoxalin-5-yl}-phenyl)-morpholin-4-yl-methanone]"
3650,1380,43,4900,2140,"CCN1CCN(Cc2ccc(-c3cnc4cccc(-c5cc(F)c(CN6CCOCC6)c(F)c5)c4n3)cc2C)CC1 [Example 92, 8-(3,5-Difluoro-4-morpholin-4-ylmethyl-phenyl)-2-[4-(4-ethyl-piperazin-1-ylmethyl)-3-methyl-phenyl]-quinoxaline]"
670,185,22,1250,3010,"CCN1CCN(Cc2ccc(-c3cnc4cccc(-c5ccc(CN6CCOCC6)c(F)c5)c4n3)cc2C)CC1 [Example 93, 2-[4-(4-Ethyl-piperazin-1-ylmethyl)-3-methyl-phenyl]-8-(3-fluoro-4-morpholin-4-ylmethyl-phenyl)-quinoxaline]"
985,455,27,2150,1530,"Cc1cc(-c2cnc3cccc(-c4cc(F)c(CN5CCOCC5)c(F)c4)c3n2)ccc1C(=O)N(C)CCN(C)C [Example 94, 4-[8-(3,5-Difluoro-4-morpholin-4-ylmethyl-phenyl)-quinoxalin-2-yl]-N-(2-dimethylamino-ethyl)-2,N-dimethyl-benzamide]"

SMILES,IC50 (GST-TYK2(888-1187)) [nM],IC50 (GST-JAK1(866-1154)) [nM],IC50 (GST-JAK2(808-1132)) [nM],IC50 (GST-JAK3(811-1124)) [nM],IC50 [1] [nM]
"CN1CCN(c2ccc(-c3cnc4cccc(-c5cc(F)c(CN6CCOCC6)c(F)c5)c4n3)cc2)CC1 [Example 87, 8-(3,5-Difluoro-4-morpholin-4-ylmethyl-phenyl)-2-[4-(4-methyl-piperazin-1-yl)-phenyl]-quinoxaline]",720,225,33.5,3500,1320
